From ChEMBL document CHEMBL1145856, “Synthesis and in vitro characterization of 1-(4-aminofurazan-3-yl)-5-dialkylaminomethyl-1H-[1,2,3]triazole-4-carboxylic acid derivatives. A new class of selective GSK-3 inhibitors” (J Med Chem, 2003)

Key:
[1] = molecular target: T1, Glycogen synthase kinase-3 beta (Homo sapiens, UniProt P49841)
Description: Inhibitory activity against human glycogen synthase kinase-3beta (GSK3-beta) at 100 uM ATP

[2] = molecular target: T1, Glycogen synthase kinase-3 beta; assay: Inhibition of human Glycogen synthase kinase-3 beta (GSK3-beta) at 100 uM ATP
[3] = molecular target: T1, Glycogen synthase kinase-3 beta; type: functional, cell-based, Cricetulus griseus, CHO
Description: Stimulation of glycogen synthase in CHO cells expressing human insulin receptor

[4] = molecular target: T1, Glycogen synthase kinase-3 beta; type: functional, cell-based, Cricetulus griseus, CHO-hIR
[5] = molecular target: Cyclin-dependent kinase 2/cyclin A (Homo sapiens, UniProt P24941); assay: Inhibition of Cyclin-dependent kinase 2-cyclin A; type: protein-complex assay

T1 sequence (P49841 whole entry): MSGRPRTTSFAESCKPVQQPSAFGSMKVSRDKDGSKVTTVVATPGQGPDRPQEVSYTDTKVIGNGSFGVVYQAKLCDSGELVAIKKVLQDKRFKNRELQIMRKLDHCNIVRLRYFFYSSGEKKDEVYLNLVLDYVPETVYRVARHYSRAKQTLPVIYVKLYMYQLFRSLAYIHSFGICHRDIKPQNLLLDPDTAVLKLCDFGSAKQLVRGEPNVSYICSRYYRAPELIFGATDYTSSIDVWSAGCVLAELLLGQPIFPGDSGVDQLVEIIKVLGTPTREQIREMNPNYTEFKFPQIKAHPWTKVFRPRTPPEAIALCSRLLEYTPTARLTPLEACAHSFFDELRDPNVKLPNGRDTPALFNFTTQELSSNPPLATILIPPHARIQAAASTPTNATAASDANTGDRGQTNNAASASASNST

Row | SMILES | IC50 [1] [nM] | further results
1 | CC(C)CNCc1c(C(=O)NCc2ccncc2)nnn1-c1nonc1N | > 250000 | –
2 | CN(C)Cc1c(-c2n[nH]c(-c3ccncc3)n2)nnn1-c1nonc1N | 6920 | –
3 | NNC(=O)c1nnn(-c2nonc2N)c1CN1CCCCC1 | 9600 | –
4 | Nc1nonc1-n1nnc(-c2n[nH]c(-c3ccncc3)n2)c1CN1CCCC1 | 240 | –
5 | CCN(CC)Cc1c(C(=O)NN)nnn1-c1nonc1N | – | IC50 [2]: 17 µM
6 | CCN(CC)Cc1c(C(=O)NCCc2ccncc2)nnn1-c1nonc1N | 11700 | –
7 | CCN(CC)Cc1c(C(=O)N/N=C/c2ccncc2)nnn1-c1nonc1N | 410 | –
8 | Nc1nonc1-n1nnc(-c2nnc(-c3ccncc3)[nH]2)c1CN1CCCCC1 | 280 | EC50 [3]: 1850 nM; EC50 [4]: 11.1 µM; IC50 [5]: > 250 µM
9 | CN(CCc1ccncc1)C(=O)c1nnn(-c2nonc2N)c1CN1CCCCC1 | > 250000 | –
10 | Nc1nonc1-n1nnc(C(=O)NCCc2ccncc2)c1CN1CCCCC1 | 1160 | EC50 [3]: 19100 nM; EC50 [4]: 57.5 µM; IC50 [5]: 119 µM
11 | Nc1nonc1-n1nnc(C(=O)N/N=C/c2ccncc2)c1CN1CCCCC1 | 100 | EC50 [3]: 2850 nM; EC50 [4]: 4.54 µM; IC50 [5]: 96 µM
12 | Nc1nonc1-n1nnc(C(=O)NCCc2ccncc2)c1CN1CCCC1 | 2100 | –
13 | Nc1nonc1-n1nnc(C(=O)N/N=C/c2ccncc2)c1CN1CCCC1 | 100 | –
14 | Nc1nonc1-n1nnc(C(=O)NCc2ccncc2)c1CN1CCCCC1 | 9300 | –
